Assays:
[1] = test system: Triticum aestivum; experiment: Pre-emergence herbicidal activity against Triticum aestivum L. (wheat) assessed change in radicular weight; assay type: functional; parameters: concentration or dose not given beside the values
[2] = Retention factor, logKw of the compound in pure aqueous mobile phases by RP-HPLC method; assay type: physicochemical; conditions: buffer
[3] = test system: Triticum aestivum; experiment: Pre-emergence herbicidal activity against Triticum aestivum L. (wheat) assessed change in aerial weight; assay type: functional; parameters: concentration or dose not given beside the values
[4] = test system: Triticum aestivum; experiment: Pre-emergence herbicidal activity against Triticum aestivum L. (wheat) assessed change in leaf length; assay type: functional; parameters: concentration or dose not given beside the values

| SMILES | Activity [1] [%] | logKw [2] | Activity [3] [%] | Activity [4] [%] |
| --- | --- | --- | --- | --- |
| COC(=O)N/N=C/c1ccc2nonc2c1 | 20 | 2.21 | 35 |  |
| O=Cc1c(-c2ccccc2)no[n+]1[O-] | 18 |  | -4 | -1.2 |
| NC(=S)N/N=C/c1c(-c2ccccc2)no[n+]1[O-] | 8 | 3.24 | -30 | -1.03 |
| COC(=O)N/N=C/c1no[n+]([O-])c1C | -50 | 1.47 | -50 | -2.08 |
| O=C(O)c1ccc2c(c1)no[n+]2[O-] | -9 |  | -16 |  |
| O=Cc1ccc2c(c1)no[n+]2[O-] | -5 | 2.4 | -30 | -0.93 |
| Cc1c(/C=N/NC(=O)NC2CCCCC2)no[n+]1[O-] | -85 | 4.39 | -50 | -1.59 |
| COC(=O)N/N=C/c1c(-c2ccccc2)no[n+]1[O-] | 16 | 3.34 | -22 | -1.19 |
| O=C(Nc1ccc(Cl)cc1)c1ccc2c(c1)no[n+]2[O-] | -73 |  | -50 | -1.43 |
| O=C(c1ccc2c(c1)no[n+]2[O-])N1CCOCC1 | -52 | 1.27 | -55 | -2.06 |
| Cc1c(C=O)no[n+]1[O-] | -5 | 0.22 | -5 | -1.62 |
| Cc1c(/C=N/NC(N)=S)no[n+]1[O-] | -95 | 1.18 |  |  |
| [O-][n+]1onc(-c2ccccc2)c1CCl | -7 | 4.24 | -4 | -0.99 |
| CCCCNC(=O)c1ccc2c(c1)no[n+]2[O-] | -66 | 2.74 | -71 | -1.54 |
| COC(=O)N/N=C\c1ccc2c(c1)no[n+]2[O-] | 13 | 2.02 | -6 | -1.17 |
| COCCNC(=O)c1ccc2c(c1)no[n+]2[O-] | -2 | 1.46 | -23 | -1.54 |
| Cc1ccc2c(c1)no[n+]2[O-] | -58 | 2.18 | -58 | -2 |
| COCCNC(=O)N/N=C\c1ccc2c(c1)no[n+]2[O-] |  | 2.31 |  | -1.1 |
| [O-][n+]1onc(-c2ccccc2)c1CN1CCN(c2ncccn2)CC1 | 0 |  | 0 | -1.22 |

Source: ChEMBL document CHEMBL3045144, “Relationship between physicochemical properties and herbicidal activity of 1,2,5-oxadiazole N-oxide derivatives” (Molecules, 2005)
